According to the CheMixHub viscosity set:
Several values for one entry are separate records, joined by “and”; a condition that tells them apart may be missing. Equal values may be shown once. ± gives the uncertainty stated by the source.

Tests used:
[1] = xn = mol fraction of the nth substance listed

CCOC=O
viscosity
Details | 293.15 K | 298.15 K | 303.15 K | 308.15 K | 313.15 K | 318.15 K | 323.15 K
100 kPa | – | 0.38 ± 0.009 mPa·s and 0.38 ± 0.01 mPa·s | 0.36 ± 0.009 mPa·s and 0.36 ± 0.01 mPa·s | – | 0.328 ± 0.008 mPa·s | 0.31 ± 0.008 mPa·s and 0.31 ± 0.01 mPa·s | 0.29 ± 0.007 mPa·s and 0.29 ± 0.01 mPa·s
101 kPa | 0.418 ± 0.011 mPa·s | 0.3972 mPa·s | 0.378 ± 0.01 mPa·s | 0.361 ± 0.01 mPa·s | – | – | 0.308 mPa·s
101.33 kPa | – | 0.379 ± 0.004 mPa·s | – | – | – | – | –

ClCCCl
Details | viscosity
293.15 K, 101 kPa | 0.8397 ± 0.022 mPa·s
298 K, 101.33 kPa | 0.77 ± 0.009 mPa·s
303 K, 101.33 kPa | 0.722 ± 0.009 mPa·s
303.15 K, 101.3 kPa | 0.73 ± 0.012 mPa·s
303.15 K, 101.33 kPa | 0.7295 ± 0.0088 mPa·s and 0.7295 ± 0.0054 mPa·s
308.15 K, 100 kPa | 0.682 ± 0.021 mPa·s
308.15 K, 101 kPa | 0.6929 ± 0.018 mPa·s
313 K, 101.33 kPa | 0.639 ± 0.008 mPa·s
323 K, 101.33 kPa | 0.573 ± 0.007 mPa·s
323.15 K, 101 kPa | 0.5724 ± 0.017 mPa·s

CC1CCCC(C)C1=O (stereo unspecified)
100 kPa
Details | viscosity [mPa·s]
303.15 K | 3.709 ± 0.15
308.15 K | 3.237 ± 0.13
313.15 K | 2.765 ± 0.11

O=S(=O)(O)O
101 kPa
Details | viscosity [mPa·s]
293.15 K | 28.7 ± 0.74
313.15 K | 16 ± 0.42
323.15 K | 12.5 ± 0.33

CCCn1cc[n+](C)c1C.F[B-](F)(F)F
101 kPa
Details | viscosity [mPa·s]
298.15 K | 377.3 ± 52
303.15 K | 271.9 ± 31
308.15 K | 202 ± 19
313.15 K | 152.2 ± 12
318.15 K | 117.4 ± 7
323.15 K | 92.29 ± 4.1

ClCCl
Details | viscosity
293.15 K, 101 kPa | 0.428 ± 0.005 mPa·s
298 K, 101 kPa | 0.433 ± 0.023 mPa·s
298.15 K, 101.33 kPa | 0.38 ± 0.011 mPa·s and 0.406 ± 0.012 mPa·s and 0.401 ± 0.048 mPa·s
303.15 K, 101.3 kPa | 0.394 ± 0.007 mPa·s
303.15 K, 101.33 kPa | 0.369 ± 0.011 mPa·s
308.15 K, 101.33 kPa | 0.362 ± 0.011 mPa·s

CC(=O)O
Details | viscosity
293.15 K, 101.32 kPa | 1.226 ± 0.014 mPa·s
293.15 K, 101.33 kPa | 1.226 ± 0.014 mPa·s and 1.222 ± 0.059 mPa·s
298.15 K, 101.3 kPa | 1.155 ± 0.03 mPa·s and 1.27 ± 0.03 mPa·s
303.15 K, 100 kPa | 0.982 mPa·s
303.15 K, 101.33 kPa | 1.346 ± 0.0094 mPa·s and 0.98 ± 0.05 mPa·s
308.15 K, 101.3 kPa | 1.08 ± 0.03 mPa·s
308.15 K, 101.32 kPa | 0.9795 ± 0.012 mPa·s
313.15 K, 101.3 kPa | 0.931 ± 0.025 mPa·s
318.15 K, 101.32 kPa | 0.8536 ± 0.01 mPa·s
323.15 K, 101.3 kPa | 0.823 ± 0.022 mPa·s and 0.883 ± 0.022 mPa·s

C[n+]1ccn(CCO)c1.O=S(=O)([O-])C(F)(F)C(F)(F)C(F)(F)C(F)(F)F
101 kPa
Details | viscosity [mPa·s]
298.15 K | 831.6 ± 45
308.15 K | 411.4 ± 20
318.15 K | 224 ± 10

CCC(=O)N(CC)CC
Details | viscosity [mPa·s]
298.16 K, 101 kPa | 1.241 ± 0.011

CCCCCC[n+]1ccn(C)c1.[I-]
101 kPa
Details | viscosity [mPa·s]
293.15 K | 2633 ± 260
298.15 K | 1742 ± 160
303.15 K | 1175 ± 100
308.15 K | 801.8 ± 68
313.15 K | 563.5 ± 45
318.15 K | 404.7 ± 31
323.15 K | 278.8 ± 20

C[Si]1(C)O[Si](C)(C)O[Si](C)(C)O[Si](C)(C)O1
viscosity [mPa·s]
Details | 298.15 K | 308.15 K | 318.15 K
101 kPa | 2.19 ± 0.057 | 1.806 ± 0.048 | 1.514 ± 0.04
103 kPa | 2.068 ± 0.044 | 1.71 ± 0.043 | 1.435 ± 0.042

CCCCCCCC[n+]1ccccc1.F[B-](F)(F)F
101.3 kPa
Details | viscosity [mPa·s]
293.15 K | 319.7 ± 20
298.15 K | 233.5 ± 12
303.15 K | 171.9 ± 7.4
308.15 K | 134.8 ± 4.7
313.15 K | 105.7 ± 2.9
318.15 K | 81.56 ± 1.6
323.15 K | 64.89 ± 0.97

CCC[N+](C)(C)C.O=S(=O)([N-]S(=O)(=O)C(F)(F)F)C(F)(F)F
101.3 kPa
Details | viscosity [mPa·s]
293.15 K | 102 ± 20
298.15 K | 79.4 ± 16
303.15 K | 63.2 ± 13
308.15 K | 51.1 ± 10
313.15 K | 42 ± 8.4
318.15 K | 35 ± 7
323.15 K | 29.5 ± 5.9

CCNc1ccccc1
Details | viscosity
293.15 K, 101 kPa | 2.282 ± 0.052 mPa·s
298 K, 101 kPa | 1.947 ± 0.05 mPa·s
298 K, 101.3 kPa | 1.952 ± 0.052 mPa·s
298.15 K, 101 kPa | 1.971 ± 0.051 mPa·s and 1.75 ± 0.05 mPa·s and 1.959 ± 0.052 mPa·s
303 K, 101 kPa | 1.741 ± 0.045 mPa·s
303 K, 101.3 kPa | 1.71 ± 0.046 mPa·s
303.15 K, 100 kPa | 1.742 ± 0.022 mPa·s
308 K, 101 kPa | 1.549 ± 0.04 mPa·s
308 K, 101.3 kPa | 1.559 ± 0.042 mPa·s
308.15 K, 101.33 kPa | 1.5 ± 0.051 mPa·s
313 K, 101 kPa | 1.392 ± 0.036 mPa·s
313 K, 101.3 kPa | 1.389 ± 0.037 mPa·s
313.15 K, 101 kPa | 1.405 ± 0.051 mPa·s and 1.391 ± 0.28 mPa·s and 1.34 ± 0.04 mPa·s
318 K, 101 kPa | 1.263 ± 0.033 mPa·s
318 K, 101.3 kPa | 1.251 ± 0.034 mPa·s
318.15 K, 101 kPa | 1.264 ± 0.051 mPa·s
323.15 K, 101 kPa | 1.146 ± 0.05 mPa·s and 1.07 ± 0.03 mPa·s and 1.124 ± 0.03 mPa·s

C1CCC2=[NH+]CCCN2CC1.c1c[n-]cn1
Details | viscosity [mPa·s]
298.15 K, 100 kPa | 34.34 ± 1.5

CCC[n+]1ccn(C)c1.N[C@@H](CO)C(=O)[O-] + O
Details | viscosity [mPa·s]
[1], 308.15 K, 100 kPa, x2 = 0.0574 | 996.5 ± 100

C1CCCCCC1
Details | viscosity [mPa·s]
303.15 K, 101 kPa | 1.239 ± 0.0075

CC(=O)O + C1CCCCC1
[1], 303.15 K, 101 kPa
Details | viscosity [mPa·s]
x2 = 0.09517 | 0.8375 ± 0.0099
x2 = 0.1912 | 0.747 ± 0.0089
x2 = 0.2978 | 0.6933 ± 0.0083
x2 = 0.5005 | 0.6661 ± 0.008
x2 = 0.5952 | 0.6798 ± 0.0081
x2 = 0.6982 | 0.6567 ± 0.0079
x2 = 0.8007 | 0.6847 ± 0.0082
x2 = 0.9035 | 0.7306 ± 0.0087

C[Si]1(C)O[Si](C)(C)O[Si](C)(C)O[Si](C)(C)O1 + ClC(Cl)(Cl)Cl
[1], 101 kPa
Details | viscosity [mPa·s]
298.15 K, x1 = 0.1089 | 1.044 ± 0.011
298.15 K, x1 = 0.1965 | 1.14 ± 0.013
298.15 K, x1 = 0.289 | 1.245 ± 0.016
298.15 K, x1 = 0.4288 | 1.407 ± 0.022
298.15 K, x1 = 0.5841 | 1.595 ± 0.029
298.15 K, x1 = 0.659 | 1.694 ± 0.033
298.15 K, x1 = 0.8443 | 1.95 ± 0.045
298.15 K, x1 = 0.9264 | 2.073 ± 0.051
298.15 K, x1 = 0.9773 | 2.147 ± 0.055
308.15 K, x1 = 0.1756 | 0.964 ± 0.012
308.15 K, x1 = 0.3239 | 1.101 ± 0.016
308.15 K, x1 = 0.5732 | 1.339 ± 0.025
308.15 K, x1 = 0.729 | 1.493 ± 0.032
308.15 K, x1 = 0.8636 | 1.646 ± 0.039
308.15 K, x2 = 0.0183 | 1.786 ± 0.047
318.15 K, x1 = 0.1779 | 0.844 ± 0.01
318.15 K, x1 = 0.3249 | 0.956 ± 0.014
318.15 K, x1 = 0.5816 | 1.148 ± 0.022
318.15 K, x1 = 0.7307 | 1.27 ± 0.027
318.15 K, x1 = 0.8652 | 1.388 ± 0.033
318.15 K, x2 = 0.0179 | 1.498 ± 0.039

ClCCl + Cc1ccccc1
[1], 101 kPa
Details | viscosity [mPa·s]
293.15 K, x1 = 0.1635 | 0.564 ± 0.015
293.15 K, x1 = 0.3002 | 0.543 ± 0.014
293.15 K, x1 = 0.4025 | 0.528 ± 0.014
293.15 K, x1 = 0.4771 | 0.517 ± 0.013
293.15 K, x1 = 0.5025 | 0.511 ± 0.013
293.15 K, x1 = 0.5801 | 0.498 ± 0.013
293.15 K, x1 = 0.5919 | 0.496 ± 0.013
293.15 K, x1 = 0.675 | 0.479 ± 0.012
293.15 K, x1 = 0.7431 | 0.468 ± 0.012
293.15 K, x1 = 0.788 | 0.465 ± 0.012
298.15 K, x1 = 0.2198 | 0.525 ± 0.014
298.15 K, x1 = 0.3271 | 0.51 ± 0.013
298.15 K, x1 = 0.4201 | 0.497 ± 0.013
298.15 K, x1 = 0.5108 | 0.48 ± 0.013
298.15 K, x1 = 0.5701 | 0.472 ± 0.012
298.15 K, x1 = 0.6325 | 0.462 ± 0.012
298.15 K, x1 = 0.6841 | 0.455 ± 0.012
298.15 K, x1 = 0.7201 | 0.45 ± 0.012
298.15 K, x1 = 0.7501 | 0.447 ± 0.012
303.15 K, x1 = 0.218 | 0.497 ± 0.013
303.15 K, x1 = 0.3331 | 0.481 ± 0.013
303.15 K, x1 = 0.4402 | 0.467 ± 0.012
303.15 K, x1 = 0.5223 | 0.45 ± 0.012
303.15 K, x1 = 0.6191 | 0.436 ± 0.011
303.15 K, x1 = 0.694 | 0.424 ± 0.011
303.15 K, x1 = 0.7651 | 0.415 ± 0.011
303.15 K, x1 = 0.8053 | 0.412 ± 0.011
